How the values were obtained:
[1] = Antagonist activity against human P2X4R stably transfected in human 1321N1 cells assessed as ATP EC50 at 0.1 uM incubated for 30 mins by Fura-2 AM staining based calcium influx assay
[2] = Antagonist activity against human P2X4R stably transfected in human 1321N1 cells assessed as ATP EC50 at 0.2 uM incubated for 30 mins by Fura-2 AM staining based calcium influx assay
[3] = Antagonist activity against human P2X4R stably transfected in human 1321N1 cells assessed as ATP EC50 at 0.05 uM incubated for 30 mins by Fura-2 AM staining based calcium influx assay
[4] = Antagonist activity against human P2X7R stably transfected in human 1321N1 cells assessed as BzATP EC50 at 0.1 uM incubated for 30 mins by Fura-2 AM staining based calcium influx assay
[5] = Antagonist activity against human P2X7R stably transfected in human 1321N1 cells assessed as BzATP EC50 at 0.2 uM incubated for 30 mins by Fura-2 AM staining based calcium influx assay
[6] = Antagonist activity against human P2X7R stably transfected in human 1321N1 cells assessed as BzATP EC50 at 0.05 uM incubated for 30 mins by Fura-2 AM staining based calcium influx assay

In the case of O=C(NC(=S)Nc1c(Br)ccc(C(F)(F)F)c1Br)c1ccc2c(c1)OCO2, the EC50 [1] is reported as 10.1 µM, the EC50 [2] is reported as 10.8 µM and the EC50 [3] is reported as 10.8 µM.
In the case of O=C(NC(=S)Nc1cccc2cccnc12)c1ccc2c(c1)OCO2, the EC50 [4] is reported as 9.44 µM, the EC50 [5] is reported as 9.14 µM and the EC50 [6] is reported as 8.31 µM.
